Data set [1] concerns differentiated SH-SY5Y human neuroblastoma cells. Kind of data set: MTT assay, neuroprotective effects against Aβ1-42 cytotoxicity. It counts as cell-based. The conditions noted are these: 24 h, read-out: increase in the cell viability (MTT assay). How it is done:
Cell cultures and differentiation: SH-SY5Y cell line were growth in DMEM:F12 (1:1) media including 10% FBS and 1% penicillin/streptomycin at 37 °C and 5% CO2 until cells reach confluence. Then, cells harvested via using trypsin/EDTA solution and transferred to 48 well plates. For differentiation, media were changed to supplemented media with 10 µg/mL retinoic acid and incubated for 5 days. Finally, media were changed into serum free media supplementing with both 10 µM retinoic acid and 25 ng/mL BDNF. Differentiated cells were determined under invert microscope and the cells were used within 10 days (Encinas M, Iglesias M, Liu Y, Wang H, Muhaisen A, Ceña V, Gallego C, Comella JX. Sequential treatment of SH-SY5Y cells with retinoic acid and brain-derived neurotrophic factor gives rise to fully differentiated, neurotrophic factor-dependent, human neuron-like cells. J. Neurochem. 2002; 75:991-1003 e Cheung YT, Lau WKW, Yu MS, Lai CSW, Yeung SC, So KF, Chang RCC. Effects of all-trans-retinoic acid on human SH-SY5Y neuroblastoma as in vitro model in neurotoxicity research. Neurotoxicol. 2009; 30:127-135).
Control cells (n = 6) were cultured under normal conditions. 1% Triton X, ascorbic acid (10 µM) and hydrogen peroxide (H2O2, 25 µM) were used as positive controls for cell viability, TAC and TOS analysis, respectively.
The cultures without BLA, MEM, or LA were studied as negative control group. 1% Triton-X was added to the culture media to provide negative control group. MTT reduction and LDH release observed after 24 h of Aβ1-42-exposure at 20 µM.
For orientation: Tetrazolium dyes change colour on reduction, which living cells bring about.

Data set [2] has as its system cultured human blood cells. Kind of data set: Nucleic acid oxidation, 8-hydroxy-2'-deoxyguanosine assay. It counts as cell-based. An excerpt:
All volunteers have signed informed consent.
Nucleic acid oxidation: 8-hydroxy-2'-deoxyguanosine assay kits (Cayman Chemical®) was used for determining 8- OH-dG levels in the cultures. It is a competitive assay that can be used for the quantification of 8-OHdG in homogenates and recognizes both free 8-OHdG and DNA-incorporated 8-OH-dG. This assay depends on the competition between 8-OH-dG and 8-OH-dGacetylcholinesterase (AChE) conjugate for a limited amount of 8-OH-dG monoclonal antibody (Abdel-Wahab BA, Metwally ME. Ginkgo biloba enhances the anticonvulsant and neuroprotective effects of sodium valproate against kainic acid-induced seizures in mice. J Pharmacol Toxicol. 2011; 6:679-690). All procedures were carried out in accordance with the provider's manual.
The levels of 8-OH-dG, a sensitive marker of oxidative DNA damage, were quantified about mitomycin (MMC) treatment. […] On the contrary, 8-OH-dG levels were not increased in the blood cells that were treated with BLA, MEM, and LA concentrations.

Data set [3] deals with platelet aggregation induced by collagen. As to the kind of experiment: Optical aggregometry in platelet-rich plasma, aggregation induced by collagen. It counts as cell-based, human. As to conditions: Collagen (10 µg/mL). The protocol: Blood Collection and Preparation of Platelet-Rich Plasma: blood was collected from healthy and non-smoking volunteers (all volunteers have signed informed consent) into a polypropylene tube containing 0.105 M buffered sodium citrate. None of the donors had received any medication known to affect platelet function for at least 10 days before blood collection. Platelet-rich plasma (PRP) was collected by the centrifugation of whole blood at 150 g for 15 min at room temperature. Subsequently, platelet-poor plasma (PPP) was collected by the centrifugation at 2000 g for 20 min at room temperature. The platelet count was adjusted to 2x10^8 cells /ml with PPP.
Incubation of PRP with BLA and LA: PRP was incubated with BLA and LA (25, 50, and 100 µM) for 15 minutes at 37 °C. PRP without any compound was used as a control.
Optical Aggregometry in Platelet-Rich Plasma: the measurement of platelet aggregation in PRP was performed using four-channel aggregometer (APACT 4004; LABiTec, Ahrensburg, Germany). After the incubation of PRP with three different compounds, platelet aggregation was stimulated by ADP (20 µM) and Collagen (10 µg/mL) and percentage of aggregation was monitored for 10 minutes. The percentage of aggregation, slope and shape change parameters were monitored for 10 minutes. Assay was started 1 hour after blood was collected and finished within 3 hours (Hao HZ, He AD, Wang DC, Yin Z, Zhou YJ, Liu G, Liang ML, Da XW, Yao GQ, Xie W, Xiang JZ, Ming ZY. Antiplatelet activity of loureirin A by attenuating Akt phosphorylation: In vitro studies. Eur. J. Pharmacol. 2015; 746:63-9).

The target of data set [4] is T1, acetylcholinesterase (AChE) (Homo sapiens, UniProt P22303).
T1 construct: endogenous in cells
T1 sequence (P22303 32-614): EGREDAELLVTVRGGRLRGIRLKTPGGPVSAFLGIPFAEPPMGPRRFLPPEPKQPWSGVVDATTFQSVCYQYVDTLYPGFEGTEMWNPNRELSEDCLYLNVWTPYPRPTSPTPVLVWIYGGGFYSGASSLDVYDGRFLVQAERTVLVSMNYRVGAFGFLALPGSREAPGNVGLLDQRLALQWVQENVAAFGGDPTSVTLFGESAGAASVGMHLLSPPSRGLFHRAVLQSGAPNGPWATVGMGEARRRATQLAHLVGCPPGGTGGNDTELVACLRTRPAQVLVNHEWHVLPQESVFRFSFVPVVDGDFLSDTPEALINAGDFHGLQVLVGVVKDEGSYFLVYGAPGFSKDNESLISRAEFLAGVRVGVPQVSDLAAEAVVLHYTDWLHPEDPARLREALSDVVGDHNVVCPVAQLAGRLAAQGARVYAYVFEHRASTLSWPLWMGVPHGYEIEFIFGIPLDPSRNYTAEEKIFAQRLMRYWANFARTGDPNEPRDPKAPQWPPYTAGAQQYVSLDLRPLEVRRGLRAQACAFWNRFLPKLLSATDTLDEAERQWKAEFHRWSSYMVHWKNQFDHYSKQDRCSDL
Kind of data set: AChE activity in cellular model of Alzheimer's disease. As to conditions: with 20 µM Aβ1-42, 24 h. It counts as cell-based. How it is done: Determination of AChE activity: the activity of AChE within the cellular Alzheimer Disease's model was measured by the Acetylcholinesterase Assay Kit (Colorimetric) from Abcam^(R) (Cambridge, MA, USA) according to the manufacturer's recommended protocol.
AChE activity was evaluated in differentiated SH-SY5Y cells treated with BLA, LA, MEM (25 and 50 µM) or media alone for 24 h.

Data set [5] deals with SHSY-5Y human neuroblastoma cell line. Kind of data set: Antitumor activity, MTT and LDH assays. It counts as cell-based. As to conditions: dose-dependent. The protocol:
Cytotechnol. 2015; 67:299-309.
Antitumor activity of BLA and MEM was tested on SHSY-5Y human neuroblastoma cell line using MTT and LDH assays. Cells were grown to near-confluency before treatment. Growth of the cell line was inhibited by both drug application in a dose-dependent manner.

The subject of data set [6] is Staphylococcus aureus ATCC 25923. As to the kind of experiment: Antimicrobial activity. It is filed as cell-based. The conditions noted are these: ATCC25923, S. aureus ATCC 25923.
The subject of data set [7] is Enterococcus faecalis ATCC 29212. As to the kind of experiment: Antimicrobial activity. The conditions noted are these: ATCC29212, E. faecalis ATCC 29212. It counts as cell-based.
The subject of data set [8] is Escherichia coli ATCC 25922. As to the kind of experiment: Antimicrobial activity. It is filed as cell-based. The conditions noted are these: ATCC25922, E. coli ATCC 25922.
Data set [9] concerns Pseudomonas aeruginosa ATCC 27853. As to the kind of experiment: Antimicrobial activity. It is filed as cell-based. The conditions noted are these: ATCC27853, P. aeruginosa ATCC 27853.
Data set [10] concerns Candida albicans ATCC 90028. As to the kind of experiment: Antimicrobial activity. It counts as cell-based. The conditions noted are these: ATCC90028, C. albicans ATCC 90028.
Data set [11] concerns peripheral human whole blood (PHWB) cells. As to the kind of experiment: Cytotoxicity assay (MTT and LDH) on blood cells. As to conditions: 0.1 to 100 µM, 24 h, MTT and LDH assays.
Description: LDH assay: For LDH assay application, LDH cytotoxicity assay kit (Cayman Chemical Company®, Ann Arbor, MI, USA) was used according to the manufacturer's recommendations. The cells were transferred to 48-well plates and different concentrations of drugs were applied for 24 h. After that, 100 µL supernatant and 100 µL of reaction mixture were transferred to a fresh 48-well plate and incubated for 30 min at room temperature. Finally, the absorbance of the cultures was analyzed at 490 nm using a microplate reader as reported by Turkez H. Togar B, Di Stefano A, Taspinar N, Sozio P. Protective effects of cyclosativene on H2O2-induced injury in cultered rat primary cerebral cortx cells. […]
MTT assay: according to the manufacturer's instructions (Cayman Chemical Company®, Ann Arbor, MI, USA), 3-(4,5-Dimethylthiazol-2-yl)-2,5-diphenyltetrazolium bromide (MTT) solution was applied to cell cultures. As summary, MTT was added and incubated in the cell cultures for 3 h and after incubation dimethyl sulfoxide (DMSO) was used to solve formazan crystals, and a plate reader was used to analyse cultures at 570 nm wavelength (Togar B, Turkez H, Hacimuftuoglu A, Tatar A, Geyikoglu F. Guaiazulene biochemical activity and cytotoxic and genotoxic effects on rat neuron and N2a neuroblastom cells. J. Intercult. Ethnopharmacol. 2015; 4:29-33). […]

SMILES strings stand for the structures. ≈ marks a conversion by molar mass, not a printed value. Marks after values point to notes of the source that are not given here.

These results are taken from patent EP3495372B1 (priority 2017, dated 2019).

By viability is commonly meant a per cent measure of how many cells are alive, often set against a control. Consider `O=C(O)CCCCC1CCSS1` (centres unmarked) [LA, 1,2-dithiolane-3-pentanoic acid], for which, in [1], the viability at 25 µM amounted to 14.8%, the viability at 50 µM turned out to be 19% and the viability at 100 µM was found to be 20.7%. Besides, the 8-OH-dG levels entry in data set [2] is “not increased”. Besides, in data set [3] (25 µM), the “Max. Aggregation (%)” value was 47.9* %, the “Shape change (%)” value is reported as 27.9* % and the “Slope (%)” value is given as 43.6* %. In [3] (50 µM), the “Max. Aggregation (%)” value was 41.6* %, the “Shape change (%)” value is on record as 23.4* % and the “Slope (%)” value is on record as 37.2* %. In data set [3] (100 µM), the “Max. Aggregation (%)” value is 35.8* %, the “Shape change (%)” value is on record as 20.8* % and the “Slope (%)” value was 31,4* %.

The term MIC denotes the lowest concentration that inhibits growth of the organism. Read a low MIC as greater potency. Consider `CC1(C)C2CC3OB(CNC(=O)CCCC[C@H]4CCSS4)O[C@]3(C)C1C2` (stereo partly drawn) [BLA, 5-((S)-1,2-dithiolan-3-yl)-N-(((3aR)-3a,5,5-trimethylhexahydro-4,6-methanobenzo[d][1,3,2]dioxaborol-2-yl)methyl)pentanamide], for which the viability at 25 µM in [1] was determined as 25.1%. The viability at 50 µM in data set [1] was 29.9%. Further, the viability at 100 µM in data set [1] is 32.9%. Moreover, the results for the “reduced Aβ-induced AChE activity” value in data set [4] (25 µM) and in [4] (50 µM) were 18.77% and 22.96%, respectively. Moreover, the 8-OH-dG levels entry in data set [2] is “not increased”. Further, the “Max. Aggregation (%)” value is 45.7* % in [3] (25 µM), 31.8* % in data set [3] (50 µM) and 7.9* % in data set [3] (100 µM). In addition, the “Shape change (%)” value in [3] (25 µM) is 24.7* %; in data set [3] (50 µM), 10.2* %; in [3] (100 µM), 5.6* %. Moreover, the “Slope (%)” value in data set [3] (25 µM) is given as 41.4* %; in [3] (50 µM), 30.8* %; in [3] (100 µM), 25.5* %. Moreover, in data set [5], the “antitumor effects (growth inhibition)” value is listed as “moderate antitumor effects”. Further, the MIC was found to be 256 µg/mL (≈ 644 µM) in data set [6]; 256 µg/mL (≈ 644 µM) in [7]; 128 µg/mL (≈ 322 µM) in [8]; 256 µg/mL (≈ 644 µM) in data set [9]; 128 µg/mL (≈ 322 µM) in data set [10]. Also, in [11], the “changes in cell viability” value is listed as “did not show any significant changes in cell viability”.
